# Test results reported in US20170009228A1, “BIOLOGICAL MATERIALS AND THERAPEUTIC USES THEREOF” (IMPERIAL INNOVATIONS LIMITED, priority 2014, published 2017).
# Where no end group is shown, it is not given here. [ ]: non-standard residue; d: D form. Cit = NC(=O)NCCC[C@H](N)C(=O)O
# B1: IL-1: murine IL-1 used to stimulate MEFs (protein, UniProt P10749 118-269, looked up)
# Interleukin-1 beta: VPIRQLHYRLRDEQQKSLVLSDPYELKALHLNGQNINQQVIFSMSFVQGEPSNDKIPVALGLKGKNLYLSCVMKDGTPTLQLESVDPKQYPKKKMEKRFVFNKIEVKSKVEFESAEFPNWYISTSQAEHKPVFLGNNSGQDIIDFTMESVSS
# Columns and labels:
# RA sera = assay: IgG response to cyclic citrullinated FBG peptides in RA and control sera; format: binding, human; details: 20 RA and 20 control sera
# Source text: (A) Peptides with sequences corresponding to the amino acid sequence of FBG were designed, with the addition of cysteine residues at the amino and carboxy termini and the exchange of arginine for citrulline residues at positions identified by LC-MS/MS. (B) IgG response to citrullinated FBG peptides and arginine containing control peptides in patients with rheumatoid arthritis (RA; n=20) and healthy controls (n=20). The 95th percentile of the control sera was used to determine positivity (dashed line). Mann-Whitney U test was used to calculate p values for differences between groups (n.s.=no significant difference, *=p<0.05 and **=p<0.01, ***=p<0.001, […]).
# With reference to FIG. 31, the antibody response in 20 RA and 20 control sera to 6 cyclic FBG peptides, encompassing citrulline residues was evaluated.
# human macrophages = assay: FBG or LPS induced cytokine synthesis in human macrophages pre-incubated with FBG peptides; format: cell-based; details: pre-incubation with 20 μM peptide, 24 h; for FBG mediated cytokine synthesis: then 1 μM whole FBG
# Method: (§1) After incubation the tissue was pipetted through a nylon mesh into a sterile beaker. The cells were then washed three times in complete medium (RPMI 1640 supplemented with 10% FCS). RA synovial fibroblasts were isolated from the mixed population of RA membrane cells by selection in DMEM (Bio-Whittaker) supplemented with 10% FBS, […], 100 U/ml penicillin, and streptomycin. Human monocytes were isolated from peripheral blood (London Blood Bank) and macrophages were derived from monocytes after differentiation for 4 days with 100 ng/ml of M-CSF.
# (§2) Macrophages were cultured at 1×10^5 cells/well in RPMI 1640 containing 5% (v/v) FBS and 100 U/ml penicillin/streptomycin in 96-well tissue culture plates for 24 h before stimulation. Cells were incubated for 24 h at 37° C. with no addition, 1.0 μM FBG, 1 ng/ml LPS or 1 or 20 μM FBG peptide. Where stated, cells were pre-incubated with 20 μM FBG peptides for 15 min.
# (§3) Supernatants were examined for the presence of the cytokines TNF-α, IL-6, and IL-8 by enzyme-linked immunosorbent assay (ELISA) according to the manufacturer's instructions (R&D systems). Absorbance was read on a spectrophotometric ELISA plate reader (Labsystems Multiscan Biochromic, Vantaa, Finland) and analyzed using the Ascent software program (Thermo Labsystems, Altrincham, UK).
# [1] = system: RA synovial membrane cultures; assay: Spontaneous cytokine synthesis in RA synovial membrane cultures incubated with FBG peptides; format: cell-based, human; details: for inhibition of cytokine synthesis at the highest concentrations / TNF and IL8 synthesis: RA synovial membrane cultures; for inhibition of cytokine synthesis at the highest concentrations: dose dependent, 25, 100 or 250 μM peptide, 24 h; for TNF and IL8 synthesis: spontaneous cytokine synthesis
# Method: RA membrane cells (representing a mixed population of all synovial cell types) were isolated from synovial membranes obtained from patients undergoing joint replacement surgery (Brennan (1989)). Synovial membrane tissue was digested in RPMI 1640 (GIBCO) containing 5% fetal calf serum (FCS) (GIBCO), 5 mg/ml collagenase type IV (Sigma) and 0 15 mg/ml DNAse type I (Sigma) and incubated at 37° C. for 2 h.
# Immediately after isolation, RA membrane cells were cultured at 1×10^5 cells/well in RPMI 1640 containing 10% (v/v) FBS and 100 U/ml penicillin/streptomycin in 96-well tissue culture plates. Cells were incubated for 24 h at 37° C. with no addition, buffer control (PBS, 1% BSA, 0.01% NaN3), or with 25 μm, 100 μM or 250 μM of each FBG spanning peptide.
# as §3
# [2] = system: primary human macrophages; assay: Stimulation of primary human macrophages with each FBG peptide; format: cell-based; details: 1 or 20 μM FBG peptide, 24 h
# Method: as §1, §2, §3
# MyD88 = assay: Cytokine synthesis in embryonic fibroblasts from MyD88 deficient mice; format: cell-based; details: for cytokine synthesis: MEFs from MyD88 deficient mice, 24 h; for responsiveness after re-transfection of wild type MyD88: MyD88 deficient MEFs, data not shown
# Method: (§4) MEFs express high levels of mRNA of all 9 murine TLRs and are specifically and highly responsive to TLR ligand activation. […] MEFs were isolated from d13 embryos harvested from age-matched, pregnant female wild type, TLR2, TLR4 and null mice (as described in Todaro (1963)). Fibroblasts were cultured at 2×10^4 cells/well in DMEM containing 10% (v/v) FBS and 100 U/ml penicillin/streptomycin in 96-well tissue culture plates for 24 hours before stimulation.
# (§5) Cells were incubated for 24 hours at 37° C. with the indicated doses of tenascin-C and recombinant tenascin-C fragments (1.0 μM-1.0 nM). Cells were also stimulated where indicated with LPS (1 ng/ml for human macrophages, 10 ng/ml for human fibroblasts, RA membrane cells and HEKs, 100 ng/ml for MEFS and BMDMs and 10 ng/ml for HEKS), PAM3 (10 ng/ml for human macrophages, human fibroblasts, and HEKs, 100 ng/ml for MEFs and BMDMs), murine IL-1 (5 ng/ml for MEFS) and murine TNF-α (100 ng/ml for MEFS). Unless specifically stated otherwise rough LPS was used for in vitro studies.
# as §3, with “were subsequently” for “were”, “instructions.” for “instructions (R&D systems).”
# TLR4 = assay: Cytokine synthesis in embryonic fibroblasts or macrophages from TLR4 deficient mice; format: cell-based
# Method: as §4
# (§6) BMDMs were derived by aspirating the femurs of age matched female wild type, TLR2 and TLR4 null mice as described in Butler (1999)) and culturing the cells for 7 days in DMEM, 20% (v/v) FBS, 10 ml/L (v/v) antibiotic-antimycotic solution PSA, 50 μM β-Mercaptoethanol and 10 ng/ml M-CSF. Macrophages were then cultured at 1×10^5 cells/well in DMEM, 20% (v/v) FBS, 10 ml/L (v/v) antibiotic-antimycotic solution PSA, 50 μM β-Mercaptoethanol in 96-well tissue culture plates for 24 hours before stimulation.
# as §5
# as §3, with “were subsequently” for “were”, “instructions.” for “instructions (R&D systems).”
# TLR2 = assay: Cytokine synthesis in embryonic fibroblasts or macrophages from TLR2 deficient mice; format: cell-based
# Method: as §4, §6, §5
# as §3, with “were subsequently” for “were”, “instructions.” for “instructions (R&D systems).”
# [3] = system: primary human macrophages; assay: TNF synthesis in primary human macrophages stimulated with native or citrullinated FBG; format: cell-based; details: 0.1-1.0 μM, 24 h
# Method: Equal volumes of protein and 2× citrullination buffer (200 mM Tris HCl, pH 7.4, 20 mM CaCl2, 10 mM DTT) were mixed. 8.75 U rabbit skeletal PAD (product number P1584 from Sigma) per mg substrate protein was added and incubated for 3 hours at 37° C. or 2 hours at 50° C. Citrullination was confirmed by size shift visualized by coomassie blue staining of SDS PAGE or by AMC detection.
# Primary human macrophages were isolated as described above and cultured at 1×10^5 cells/well in RPMI 1640 containing 5% (v/v) FBS and 100 U/ml penicillin/streptomycin in 96-well tissue culture plates for 24 h before stimulation. Cells were incubated for 24 h at 37° C. with no addition (UN), different concentrations (uM) of native FBG (nFBG) or cit FBG (cFBG) or citrullination buffer alone (CIT) or cit buffer plus PAD enzyme (CIT+PAD).
# as §3, with “TNF-α” for “TNF-α, IL-6, and IL-8”
# [4] = system: human dermal fibroblasts (HDF); assay: Cell adhesion to coated FBG, human dermal fibroblasts; format: cell-based; details: coated wells, 45 minutes, crystal violet
# Method: (§7) (A) The sequence identified to bind integrin ≢vβ3 is shown in white (Yokoyama et al., 2000). Within this sequence two Arginines (shown in black) were identified to be citrullinated. (B) Wells of a 96 well plate were coated with different concentrations of FBG, citrullinated FBG (cFBG), FBG incubated in buffer without Calcium (FBG —Ca^2+), or FBG incubated without PAD (FBG -PAD). As a positive control wells were coated with Fibronectin (FN) (1 ug/ml), and coating with BSA (10 mg/ml) served as negative control. Plates were incubated with human dermal fibroblasts (HDF) or synovial fibroblasts from RA patients (RAF) for 45 minutes and adhesion was measured by determining absorbance of attached cells after staining with crystal violet (0.1%). Data are shown as the mean of at least four independent experiments+s.e.m., *=p<0.05, **=p<0.01.
# [5] = system: synovial fibroblasts from RA patients (RAF); assay: Cell adhesion to coated FBG, RA synovial fibroblasts; format: cell-based, human; details: coated wells, 45 minutes, crystal violet
# Method: as §7
molecule,measurement,setting,value
"CEMKL-Cit-PSNF-Cit-NLEGRRKRC (CEMKL[Cit]PSNF[Cit]NLEGRRKRC; not fully specified (bridges); printed as CEMKL-Cit-PSNF-Cit-NLEGRRKRC; also: cyclic, bridge not given here) [CIT209/214]",antibody response in RA sera and control sera,RA sera,detected in RA sera but not control sera
"CEMKLRPSNFRNLEG-Cit-Cit-KRC (CEMKLRPSNFRNLEG[Cit][Cit]KRC; not fully specified (bridges); printed as CEMKLRPSNFRNLEG-Cit-Cit-KRC; also: cyclic, bridge not given here) [CIT219/220]",antibody response in RA sera and control sera,RA sera,detected in RA sera but not control sera
"CVFLRRKNG-Cit-ENFYQNWC (CVFLRRKNG[Cit]ENFYQNWC; not fully specified (bridges); printed as CVFLRRKNG-Cit-ENFYQNWC; also: cyclic, bridge not given here) [CIT55]",antibody response in RA sera and control sera,RA sera,detected in RA sera but not control sera
ELRVDLRDHGETAFAVYDKFSVGDAKTRYK [Peptide 5],FBG mediated cytokine synthesis,human macrophages,specifically blocked
same,TNF synthesis,"[1]; RA membrane cells, 24 h with peptide",no effect
same,maximal inhibition of IL8 synthesis,"[1]; RA membrane cells, dose dependent",81%
same,cytokine synthesis,[2],induced cytokine synthesis in a dose dependent manner
KTRYKLKVEGYSGTAGDSMAYHNGRSFST [Peptide 6],cytokine synthesis,[2],induced cytokine synthesis in a dose dependent manner
Pam3Cys-Ser-Lys4 [reference compound],cytokine synthesis,MyD88,abolished
same,responsiveness after re-transfection of wild type MyD88,MyD88,restored the responsiveness
same,cytokine synthesis,TLR4,did respond
same,cytokine synthesis,TLR2,unresponsive
TIGLLYPFPKDCSQAMLNGDTTSGLYTIYL [Peptide 1],cytokine synthesis,[2],induced cytokine synthesis in a dose dependent manner
TNF-α [reference compound],cytokine synthesis,MyD88,unaffected
WIVFLRRKNGRENFYQNWKAYAAGFGDRRE [Peptide 3],inhibition of cytokine synthesis at the highest concentrations,[1],95%
same,TNF and IL8 synthesis,[1]; 24 h with peptide,inhibited
WYRNCHRVNLMGRYGDNNHSQGVNWFHWKG [Peptide 8],cytokine synthesis in response to LPS,human macrophages; then 1 ng/ml LPS,blocked
same,FBG mediated cytokine synthesis,human macrophages,blocked
same,inhibition of cytokine synthesis at the highest concentrations,[1],56%
same,TNF and IL8 synthesis,[1]; 24 h with peptide,inhibited
cFBG: FBG domain of tenascin-C citrullinated in vitro with PAD,cytokine (TNFα) synthesis compared with native FBG,[3],better at stimulating cytokine (e.g. TNFα) synthesis
same,adhesion of human dermal fibroblasts (HDF),[4],reduces adhesion
same,adhesion of synovial fibroblasts from RA joints (RAF),[5],reduces adhesion
B1,cytokine synthesis,MyD88,abolished
same,responsiveness after re-transfection of wild type MyD88,MyD88,restored the responsiveness
same,cytokine synthesis,TLR4,did respond
same,cytokine synthesis,TLR2,responsive
